Laboratory results published in US10093630B2, “Pyrazole compounds and methods of making and using same” (ABIDE THERAPEUTICS, INC., priority 2014, dated 2018).

Legend:
Experiment in all cases: In vitro competitive activity-based protein profiling (gel-based, FP-Rh or HT-01 probe)
Format in all cases: biochemical
ABHD6 = target: T1, ABHD6 (Mus musculus, UniProt Q8R2Y0); details: for inhibition at 1 µM: 1 μM inhibitor, read-out: % Inhibition at 1 μM, C = ABHD6; for inhibition at 10 µM: 10 μM inhibitor, read-out: % Inhibition at 10 μM, C = ABHD6; for IC50: mouse brain membrane fraction or cell lysates, 30 min preincubation at 37° C., read-out: Mouse (IC50 value, nM) ABHD6
T1 construct: Proteomes (mouse brain membrane fraction or cell lysates); from tissue; host or cells: mouse brain membrane fraction (or cell lysates, not specified)
T1 sequence (Q8R2Y0 1-336): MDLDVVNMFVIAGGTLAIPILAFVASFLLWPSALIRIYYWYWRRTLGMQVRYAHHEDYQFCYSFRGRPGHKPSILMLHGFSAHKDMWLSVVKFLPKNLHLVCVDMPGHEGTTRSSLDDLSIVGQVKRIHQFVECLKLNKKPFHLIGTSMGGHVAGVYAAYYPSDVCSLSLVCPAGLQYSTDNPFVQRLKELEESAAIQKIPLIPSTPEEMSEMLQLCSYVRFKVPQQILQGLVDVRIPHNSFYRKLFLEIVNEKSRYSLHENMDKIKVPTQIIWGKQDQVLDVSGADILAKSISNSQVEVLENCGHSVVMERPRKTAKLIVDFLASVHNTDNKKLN
Procedure, shortened: (§1)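 Read-out: fluorescent band intensity on SDS-PAGE gels, reporting remaining serine hydrolase activity. Before that, proteome (mouse brain membranes or cell lysates, 1.0 mg/mL) saw a range of inhibitor concentrations for 30 min at 37° C, followed by 30 min probe labelling (FP-Rh or HT-01).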

FAAH = target: T2, FAAH (Mus musculus, UniProt O08914); details: for inhibition at 1 µM: 1 μM inhibitor, read-out: % Inhibition at 1 μM, B = FAAH; for inhibition at 10 µM: 10 μM inhibitor, read-out: % Inhibition at 10 μM, B = FAAH; for IC50: mouse brain membrane fraction or cell lysates, 30 min preincubation at 37° C., read-out: Mouse (IC50 value, nM) FAAH
T2 construct: Proteomes (mouse brain membrane fraction or cell lysates); from tissue; host or cells: mouse brain membrane fraction (or cell lysates, not specified)
T2 sequence (O08914 1-579): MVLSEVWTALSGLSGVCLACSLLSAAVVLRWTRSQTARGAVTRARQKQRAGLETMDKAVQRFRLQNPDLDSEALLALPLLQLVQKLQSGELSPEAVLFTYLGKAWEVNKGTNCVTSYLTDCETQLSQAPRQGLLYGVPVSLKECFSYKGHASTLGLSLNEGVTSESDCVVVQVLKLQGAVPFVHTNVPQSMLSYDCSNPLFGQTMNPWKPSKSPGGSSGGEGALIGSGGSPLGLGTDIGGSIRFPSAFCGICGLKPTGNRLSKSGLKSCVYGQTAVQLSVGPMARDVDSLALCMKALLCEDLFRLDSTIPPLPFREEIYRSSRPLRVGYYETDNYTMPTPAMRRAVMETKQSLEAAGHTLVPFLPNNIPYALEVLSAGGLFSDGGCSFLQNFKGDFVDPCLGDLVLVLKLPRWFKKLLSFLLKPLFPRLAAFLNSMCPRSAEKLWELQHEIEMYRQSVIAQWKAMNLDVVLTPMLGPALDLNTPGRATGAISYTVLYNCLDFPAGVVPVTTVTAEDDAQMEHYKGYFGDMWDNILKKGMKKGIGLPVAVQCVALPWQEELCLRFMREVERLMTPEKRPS
Procedure, shortened: as §1

MAGL = target: T3, MAGL (Mus musculus, UniProt O35678); details: for inhibition at 1 µM: 1 μM inhibitor; for inhibition at 10 µM: 10 μM inhibitor; for IC50: mouse brain membrane fraction or cell lysates, 30 min preincubation at 37° C., read-out: Mouse (IC50 value, nM) MAGL
T3 construct: Proteomes (mouse brain membrane fraction or cell lysates); from tissue; host or cells: mouse brain membrane fraction (or cell lysates, not specified)
T3 sequence (O35678 1-303): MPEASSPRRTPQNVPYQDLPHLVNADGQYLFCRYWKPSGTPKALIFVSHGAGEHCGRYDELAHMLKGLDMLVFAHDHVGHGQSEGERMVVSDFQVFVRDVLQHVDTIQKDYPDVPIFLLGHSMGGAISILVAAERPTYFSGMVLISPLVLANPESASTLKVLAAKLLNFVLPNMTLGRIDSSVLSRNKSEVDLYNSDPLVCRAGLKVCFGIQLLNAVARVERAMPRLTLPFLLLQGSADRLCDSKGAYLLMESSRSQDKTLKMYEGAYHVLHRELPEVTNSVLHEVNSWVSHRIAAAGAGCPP
Procedure, shortened: as §1

PLA2G7 = target: T4, PLA2G7 (Mus musculus, UniProt Q60963); details: for inhibition at 1 µM: 1 μM inhibitor, read-out: % Inhibition at 1 μM, D = PLA2G7; for inhibition at 10 µM: 10 μM inhibitor, read-out: % Inhibition at 10 μM, D = PLA2G7; for IC50: mouse brain membrane fraction or cell lysates, 30 min preincubation at 37° C.
T4 construct: Proteomes (mouse brain membrane fraction or cell lysates); from tissue; host or cells: mouse brain membrane fraction (or cell lysates, not specified)
T4 sequence (Q60963 22-440): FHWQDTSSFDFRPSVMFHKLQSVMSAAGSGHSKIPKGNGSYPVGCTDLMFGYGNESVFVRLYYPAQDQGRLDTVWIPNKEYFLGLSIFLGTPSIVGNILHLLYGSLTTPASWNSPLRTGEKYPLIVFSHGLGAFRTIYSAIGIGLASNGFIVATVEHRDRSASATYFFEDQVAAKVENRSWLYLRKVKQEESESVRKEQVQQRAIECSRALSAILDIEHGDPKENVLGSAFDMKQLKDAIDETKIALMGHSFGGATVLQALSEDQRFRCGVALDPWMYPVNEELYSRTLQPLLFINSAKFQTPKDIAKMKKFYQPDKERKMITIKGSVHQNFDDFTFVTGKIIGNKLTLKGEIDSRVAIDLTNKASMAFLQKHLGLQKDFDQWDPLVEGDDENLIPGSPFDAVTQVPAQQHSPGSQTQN
Procedure, shortened: as §1

Row | SMILES | inhibition at 1 µM (ABHD6) [%] | inhibition at 10 µM (ABHD6) [%] | IC50 (ABHD6) [nM] | inhibition at 1 µM (FAAH) [%] | inhibition at 10 µM (FAAH) [%] | IC50 (FAAH) [nM] | inhibition at 1 µM (MAGL) [%] | inhibition at 10 µM (MAGL) [%] | IC50 (MAGL) [nM] | inhibition at 1 µM (PLA2G7) [%] | inhibition at 10 µM (PLA2G7) [%] | IC50 (PLA2G7) [nM]
1 | CCN(Cc1ccc(OC)cc1)C(=O)n1cc(Cl)cn1 [Example 129, 4-Chloro-N-ethyl-N-(4-methoxybenzyl)-1H-pyrazole-1-carboxamide] | < 25 | 25 to 75 | > 1000 | > 75 | > 75 | 100 to 1000 | < 25 | > 75 | > 1000 | < 25 | < 25 | –
2 | CCN(Cc1ccccc1Cl)C(=O)n1cc(Cl)cn1 [Example 130, 4-Chloro-N-(2-chlorobenzyl)-N-ethyl-1H-pyrazole-1-carboxamide] | < 25 | – | – | < 25 | – | – | < 25 | – | – | < 25 | – | –
3 | CCN(Cc1ccc(Cl)cc1)C(=O)n1cc(Cl)cn1 [Example 131, 4-chloro-N-(4-chlorobenzyl)-N-ethyl-1H-pyrazole-1-carboxamide] | < 25 | – | > 1000 | > 75 | – | < 100 | < 25 | – | > 1000 | < 25 | – | –
4 | CCN(Cc1ccccc1C)C(=O)n1cc(Cl)cn1 [Example 132, 4-Chloro-N-(2-methylbenzyl)-N-ethyl-1H-pyrazole-1-carboxamide] | < 25 | – | – | < 25 | – | – | < 25 | – | – | < 25 | – | –
5 | CCN(Cc1ccc(C)cc1)C(=O)n1cc(Cl)cn1 [Example 133, 4-Chloro-N-ethyl-N-(4-methylbenzyl)-1H-pyrazole-1-carboxamide] | < 25 | > 75 | > 1000 | > 75 | > 75 | < 100 | < 25 | > 75 | > 1000 | < 25 | < 25 | –
6 | CCN(Cc1cccc(Cl)c1)C(=O)n1cc(Cl)cn1 [Example 134, 4-Chloro-N-(3-chlorobenzyl)-N-ethyl-1H-pyrazole-1-carboxamide] | < 25 | > 75 | > 1000 | > 75 | > 75 | 100 to 1000 | 25 to 75 | > 75 | > 1000 | < 25 | < 25 | –
7 | CCN(Cc1cccc(C)c1)C(=O)n1cc(Cl)cn1 [Example 135, 4-Chloro-N-ethyl-N-(3-methylbenzyl)-1H-pyrazole-1-carboxamide] | < 25 | > 75 | > 1000 | > 75 | > 75 | 100 to 1000 | 25 to 75 | > 75 | > 1000 | < 25 | < 25 | –
8 | O=C(N1CCCCC1)n1cc(-c2ccccc2)cn1 [Example 136, (4-Phenyl-1H-pyrazol-1-yl)(piperidin-1-yl)methanone] | > 75 | > 75 | – | > 75 | > 75 | – | < 25 | < 25 | – | > 75 | > 75 | –
9 | Cc1cc(-c2ccccc2)ccc1CN1CCN(C(=O)n2cc(Cl)cn2)CC1 [Example 137, (4-Chloro-1H-pyrazol-1-yl)(4-((3-methylbiphenyl-4-yl)methyl)piperazin-1-yl)methanone] | > 75 | > 75 | 100 to 1000 | > 75 | > 75 | < 100 | > 75 | > 75 | < 100 | < 25 | 25 to 75 | > 1000
10 | Cc1cc(-c2ccccc2)ccc1CN1CCN(C(=O)n2cc(C#N)cn2)CC1 [Example 138, 1-(4-((3-methylbiphenyl-4-yl)methyl)piperazine-1-carbonyl)-1H-pyrazole-4-carbonitrile] | > 75 | > 75 | < 100 | > 75 | > 75 | < 100 | > 75 | > 75 | < 100 | > 75 | > 75 | < 100
11 | O=C(N1CCN(Cc2ccc(-c3ccccc3)cc2Cl)CC1)n1cc(Cl)cn1 [Example 139, (4-chloro-1H-pyrazol-1-yl)(4-((3-chlorobiphenyl-4-yl)methyl)piperazin-1-yl)methanone] | > 75 | > 75 | 100 to 1000 | > 75 | > 75 | < 100 | > 75 | > 75 | < 100 | < 25 | > 75 | > 1000
12 | N#Cc1cnn(C(=O)N2CCN(Cc3ccc(-c4ccccc4)cc3Cl)CC2)c1 [Example 140, 1-(4-((3-chlorobiphenyl-4-yl)methyl)piperazine-1-carbonyl)-1H-pyrazole-4-carbonitrile] | > 75 | > 75 | – | > 75 | > 75 | – | > 75 | > 75 | – | > 75 | > 75 | –
13 | COc1cc(-c2ccccc2)ccc1CN1CCN(C(=O)n2cc(Cl)cn2)CC1 [Example 141, (4-Chloro-1H-pyrazol-1-yl)(4-((3-methoxybiphenyl-4-yl)methyl)piperazin-1-yl)methanone] | > 75 | > 75 | 100 to 1000 | > 75 | > 75 | 100 to 1000 | > 75 | > 75 | < 100 | < 25 | > 75 | –
14 | Cc1cc(-c2ccccc2)ccc1CN1CCN(C(=O)n2cc(C(F)(F)F)cn2)CC1 [Example 142, (4-((3-Methylbiphenyl-4-yl)methyl)piperazin-1-yl)(4-(trifluoromethyl)-1H-pyrazol-1-yl)methanone] | > 75 | > 75 | 100 to 1000 | > 75 | > 75 | < 100 | > 75 | > 75 | < 100 | > 75 | > 75 | –
